Laboratory results reported in paper PMC10885153, “Membrane Permeability in a Large Macrocyclic Peptide Driven by a Saddle-Shaped Conformation” (Journal of the American Chemical Society, 2024).
Positions of bridges follow the written chain, without caps; N, C: chain ends. Non-standard residues stand in square brackets, D forms with d. Residues, ends and D or L forms follow the SMILES beside them. NMeC = CN[C@@H](CS)C(=O)O; NMeA = CN[C@@H](C)C(=O)O; dAbu = CC[C@@H](N)C(=O)O; dNMeA = CN[C@H](C)C(=O)O; Nva = CCC[C@H](N)C(=O)O; Abu = CC[C@H](N)C(=O)O; Nleu = CC(C)CNCC(=O)O; NPrGly = CCCNCC(=O)O; NEtG = CCNCC(=O)O

experiment: not given; details: not given

PAMPA Pe_avg [×10⁻⁶ cm/s]	SMILES
0	CCOC(=O)[C@@H]1CSCC(=O)N[C@H](CC)C(=O)N(C)[C@@H](C)C(=O)N[C@H](CC(C)C)C(=O)N2CCC[C@@H]2C(=O)N(CC)CC(=O)N[C@@H](CC(C)C)C(=O)N(C)[C@@H](C)C(=O)N[C@@H](CC(C)C)C(=O)N1C [JF206_ADD_DDLL_Ethyl] ({CH2CO}-[dAbu][NMeA][dL][dP][NEtG]L[NMeA]L[NMeC]-OEt; thioether N-9)
0	CCOC(=O)[C@@H]1CSCC(=O)N[C@H](CC)C(=O)N(C)[C@@H](C)C(=O)N[C@@H](CC(C)C)C(=O)N2CCC[C@@H]2C(=O)N(CC)CC(=O)N[C@H](CC(C)C)C(=O)N(C)[C@H](C)C(=O)N[C@@H](CC(C)C)C(=O)N1C [JF206_ADD_DLDD_Ethyl] ({CH2CO}-[dAbu][NMeA]L[dP][NEtG][dL][dNMeA]L[NMeC]-OEt; thioether N-9)
0	CCOC(=O)[C@@H]1CSCC(=O)N[C@@H](CC)C(=O)N(C)[C@@H](C)C(=O)N[C@H](CC(C)C)C(=O)N2CCC[C@@H]2C(=O)N(CC)CC(=O)N[C@@H](CC(C)C)C(=O)N(C)[C@H](C)C(=O)N[C@@H](CC(C)C)C(=O)N1C [JF206_ADL_LDLD_Ethyl] ({CH2CO}-[Abu][NMeA][dL][dP][NEtG]L[dNMeA]L[NMeC]-OEt; thioether N-9)
0	CCOC(=O)[C@@H]1CSCC(=O)N[C@H](CC)C(=O)N(C)[C@@H](C)C(=O)N[C@@H](CC(C)C)C(=O)N2CCC[C@H]2C(=O)N(CC)CC(=O)N[C@H](CC(C)C)C(=O)N(C)[C@H](C)C(=O)N[C@@H](CC(C)C)C(=O)N1C [JF206_ALD_DLDD_Ethyl] ({CH2CO}-[dAbu][NMeA]LP[NEtG][dL][dNMeA]L[NMeC]-OEt; thioether N-9)

same assay, conditions: PAMPA, 10 µM, pH 7.4

%R_avg [%]	SMILES
33.1	CCC[C@@H]1NC(=O)[C@H](C)N(C)C(=O)[C@H](CC(C)C)NC(=O)CSC[C@@H](C(=O)OCC)N(C)C(=O)[C@H](CC(C)C)NC(=O)[C@H](C)N(C)C(=O)[C@H](CC)NC(=O)CN(CC)C(=O)[C@H]2CCCN2C1=O [LA01, O=C(N(C)[C@H](C(OCC)=O)CSCC(N[C@H](C(N(C)[C@@H](C)C(N[C@@H](CCC)C(N1[C@H](CCC1)C(N(CC)CC(N[C@H]2CC)=O)=O)=O)=O)=O)CC(C)C)=O)[C@H](CC(C)C)NC([C@H](C)N(C)C2=O)=O] ({CH2CO}-L[NMeA][Nva][dP][NEtG][Abu][NMeA]L[NMeC]-OEt; thioether N-9)
25.8	CCC[C@@H]1NC(=O)[C@H](C)N(C)C(=O)[C@H](CC(C)C)NC(=O)CSC[C@@H](C(=O)OCC)N(C)C(=O)[C@H](CC(C)C)NC(=O)[C@H](C)N(C)C(=O)[C@H](CC)NC(=O)CN(CCC)C(=O)[C@H]2CCCN2C1=O [LA03, O=C(N(C)[C@H](C(OCC)=O)CSCC(N[C@H](C(N(C)[C@@H](C)C(N[C@@H](CCC)C(N1[C@H](CCC1)C(N(CCC)CC(N[C@H]2CC)=O)=O)=O)=O)=O)CC(C)C)=O)[C@H](CC(C)C)NC([C@H](C)N(C)C2=O)=O] ({CH2CO}-L[NMeA][Nva][dP][NPrGly][Abu][NMeA]L[NMeC]-OEt; thioether N-9)

experiment: in vitro; details: PAMPA, pH 7.4, PAMPA Pe_avg
Procedure: Passive permeabilities of the 36 compounds were measured in multiplex as mixtures of six compounds each using the parallel artificial membrane permeability assay (PAMPA).[44]−[46]
Protocol is identical for both mixture and pure compound analysis.
Two of the following: Carbamazepine (CBZ), propranolol (Prop), and 1NMe35 were
included as internal standards and prepared as DMSO stocks at a concentration of 2 000 µM.
assay was carried out with a 96-well donor plate with 0.45 μ hydrophobic Immobilon-P membrane supports
(Millipore MAIPNTR10) and a 96-well Teflon acceptor plate (Millipore MSSACCEPTOR).
protocol then proceeded as follows:
Donor well solutions were prepared to a volume of 1 000 µL with the analytes as a solution in 1X
PBS pH 7.4 and 5% DMSO. To a 3 mL Eppendorf tube was added 950 µL of 1X PBS pH 7.4, 40
The solutions were vortexed and set aside.
Analyte – 10 µM per compound
A 1% solution of soy lecithin in dodecane was freshly prepared in a 3 mL Eppendorf tube and
sonicated (5 min) to ensure full dissolution of the lecithin. The donor membrane plate was turned
upside down and bottom of the membranes exposed. 5 µL of the 1% soy lecithin solution in
dodecane was then placed on the bottom of the membrane, allowing the drop to spread across the
full area of the membrane. Any membranes with visible damage were not used in the assay.
membranes were allowed to equilibrate for 5 min before loading.
Each well within the Teflon block acceptor plate that was to be used in the assay was then loaded
with 300 µL of 1X PBS pH 7.4 and 5% DMSO.
Working without break, 150 µL of each donor well solution was transferred from the to the 96-well
donor plate. Each mixture of interest was r un in quadruplicate, using a new well for each replicate.
As soon as the 96-well donor plate was finished being loaded, it was gently placed into the 96-well
Teflon acceptor plate, taking care not to trap any air bubbles beneath the membrane.
The donor/acceptor plates were covered gently with the lid to minimize evaporation and transferred
gently as a system to a sealed chamber and left to sit overnight at room temperature. The chamber
was kept from drying by placing a wet paper towel within to prevent evaporation.
After ~19-20 hours the donor plate was removed from the acceptor plate.
50 µL of each well (donor and acceptor) were transferred to a 96 -well plate and diluted with 50 µL
of methanol prior to heat sealing and quantification by UPLC -MS.

SMILES	Papp at 10 µM [×10⁻⁶ cm/s]
CCOC(=O)[C@@H]1CSCC(=O)N[C@H](CC)C(=O)N(C)[C@@H](C)C(=O)N[C@@H](CC(C)C)C(=O)N2CCC[C@H]2C(=O)N(CC)CC(=O)N[C@H](CC(C)C)C(=O)N(C)[C@@H](C)C(=O)N[C@@H](CC(C)C)C(=O)N1C [JF206_ALD_DLDL_Ethyl] ({CH2CO}-[dAbu][NMeA]LP[NEtG][dL][NMeA]L[NMeC]-OEt; thioether N-9)	0.027
CCOC(=O)[C@@H]1CSCC(=O)N[C@H](CC)C(=O)N(C)[C@@H](C)C(=O)N[C@@H](CC(C)C)C(=O)N2CCC[C@H]2C(=O)N(CC)CC(=O)N[C@@H](CC(C)C)C(=O)N(C)[C@H](C)C(=O)N[C@@H](CC(C)C)C(=O)N1C [JF206_ALD_DLLD_Ethyl] ({CH2CO}-[dAbu][NMeA]LP[NEtG]L[dNMeA]L[NMeC]-OEt; thioether N-9)	0.016
CCOC(=O)[C@@H]1CSCC(=O)N[C@@H](CC)C(=O)N(C)[C@@H](C)C(=O)N[C@H](CC(C)C)C(=O)N2CCC[C@H]2C(=O)N(CC)CC(=O)N[C@H](CC(C)C)C(=O)N(C)[C@H](C)C(=O)N[C@@H](CC(C)C)C(=O)N1C [JF206_ALL_LDDD_Ethyl] ({CH2CO}-[Abu][NMeA][dL]P[NEtG][dL][dNMeA]L[NMeC]-OEt; thioether N-9)	0.623
CCOC(=O)[C@@H]1CSCC(=O)N[C@@H](CC)C(=O)N(C)[C@@H](C)C(=O)N[C@H](CC(C)C)C(=O)N2CCC[C@H]2C(=O)N(CC)CC(=O)N[C@@H](CC(C)C)C(=O)N(C)[C@H](C)C(=O)N[C@@H](CC(C)C)C(=O)N1C [JF206_ALL_LDLD_Ethyl] ({CH2CO}-[Abu][NMeA][dL]P[NEtG]L[dNMeA]L[NMeC]-OEt; thioether N-9)	0.012
CCOC(=O)[C@@H]1CSCC(=O)N[C@@H](CC)C(=O)N(C)[C@@H](C)C(=O)N[C@H](CC(C)C)C(=O)N2CCC[C@H]2C(=O)N(CC)CC(=O)N[C@@H](CC(C)C)C(=O)N(C)[C@@H](C)C(=O)N[C@@H](CC(C)C)C(=O)N1C [JF206_ALL_LDLL_Ethyl] ({CH2CO}-[Abu][NMeA][dL]P[NEtG]L[NMeA]L[NMeC]-OEt; thioether N-9)	0.015

Next, values leading:

Papp at 10 µM [×10⁻⁶ cm/s]	SMILES
0.075	CCOC(=O)[C@@H]1CSCC(=O)N[C@H](CC)C(=O)N(C)[C@@H](C)C(=O)N[C@H](CC(C)C)C(=O)N2CCC[C@H]2C(=O)N(CC(C)C)CC(=O)N[C@@H](CC(C)C)C(=O)N(C)[C@@H](C)C(=O)N[C@@H](CC(C)C)C(=O)N1C [JF206_ALD_DDLL_Isobutyl] ({CH2CO}-[dAbu][NMeA][dL]P[Nleu]L[NMeA]L[NMeC]-OEt; thioether N-9)
0.038	CCOC(=O)[C@@H]1CSCC(=O)N[C@H](CC)C(=O)N(C)[C@@H](C)C(=O)N[C@@H](CC(C)C)C(=O)N2CCC[C@H]2C(=O)N(CC(C)C)CC(=O)N[C@H](CC(C)C)C(=O)N(C)[C@H](C)C(=O)N[C@@H](CC(C)C)C(=O)N1C [JF206_ALD_DLDD_Isobutyl] ({CH2CO}-[dAbu][NMeA]LP[Nleu][dL][dNMeA]L[NMeC]-OEt; thioether N-9)
0.248	CCOC(=O)[C@@H]1CSCC(=O)N[C@H](CC)C(=O)N(C)[C@@H](C)C(=O)N[C@@H](CC(C)C)C(=O)N2CCC[C@H]2C(=O)N(CC(C)C)CC(=O)N[C@H](CC(C)C)C(=O)N(C)[C@@H](C)C(=O)N[C@@H](CC(C)C)C(=O)N1C [JF206_ALD_DLDL_Isobutyl] ({CH2CO}-[dAbu][NMeA]LP[Nleu][dL][NMeA]L[NMeC]-OEt; thioether N-9)
0.117	CCOC(=O)[C@@H]1CSCC(=O)N[C@H](CC)C(=O)N(C)[C@@H](C)C(=O)N[C@@H](CC(C)C)C(=O)N2CCC[C@H]2C(=O)N(CC(C)C)CC(=O)N[C@@H](CC(C)C)C(=O)N(C)[C@H](C)C(=O)N[C@@H](CC(C)C)C(=O)N1C [JF206_ALD_DLLD_Isobutyl] ({CH2CO}-[dAbu][NMeA]LP[Nleu]L[dNMeA]L[NMeC]-OEt; thioether N-9)
0.598	CCOC(=O)[C@@H]1CSCC(=O)N[C@H](CC)C(=O)N(C)[C@@H](C)C(=O)N[C@@H](CC(C)C)C(=O)N2CCC[C@H]2C(=O)N(CC(C)C)CC(=O)N[C@@H](CC(C)C)C(=O)N(C)[C@@H](C)C(=O)N[C@@H](CC(C)C)C(=O)N1C [JF206_ALD_DLLL_Isobutyl] ({CH2CO}-[dAbu][NMeA]LP[Nleu]L[NMeA]L[NMeC]-OEt; thioether N-9)
0.00468	CCOC(=O)[C@@H]1CSCC(=O)N[C@@H](CC)C(=O)N(C)[C@@H](C)C(=O)N[C@@H](CC(C)C)C(=O)N2CCC[C@H]2C(=O)N(CC)CC(=O)N[C@H](CC(C)C)C(=O)N(C)[C@H](C)C(=O)N[C@@H](CC(C)C)C(=O)N1C [JF206_ALL_LLDD_Ethyl] ({CH2CO}-[Abu][NMeA]LP[NEtG][dL][dNMeA]L[NMeC]-OEt; thioether N-9)
0.182	CCOC(=O)[C@@H]1CSCC(=O)N[C@@H](CC)C(=O)N(C)[C@@H](C)C(=O)N[C@@H](CC(C)C)C(=O)N2CCC[C@H]2C(=O)N(CC(C)C)CC(=O)N[C@H](CC(C)C)C(=O)N(C)[C@H](C)C(=O)N[C@@H](CC(C)C)C(=O)N1C [JF206_ALL_LLDD_Isobutyl] ({CH2CO}-[Abu][NMeA]LP[Nleu][dL][dNMeA]L[NMeC]-OEt; thioether N-9)
0.003	CCOC(=O)[C@@H]1CSCC(=O)N[C@@H](CC)C(=O)N(C)[C@@H](C)C(=O)N[C@@H](CC(C)C)C(=O)N2CCC[C@H]2C(=O)N(CC)CC(=O)N[C@H](CC(C)C)C(=O)N(C)[C@@H](C)C(=O)N[C@@H](CC(C)C)C(=O)N1C [JF206_ALL_LLDL_Ethyl] ({CH2CO}-[Abu][NMeA]LP[NEtG][dL][NMeA]L[NMeC]-OEt; thioether N-9)
0.093	CCOC(=O)[C@@H]1CSCC(=O)N[C@@H](CC)C(=O)N(C)[C@@H](C)C(=O)N[C@@H](CC(C)C)C(=O)N2CCC[C@H]2C(=O)N(CC(C)C)CC(=O)N[C@H](CC(C)C)C(=O)N(C)[C@@H](C)C(=O)N[C@@H](CC(C)C)C(=O)N1C [JF206_ALL_LLDL_Isobutyl] ({CH2CO}-[Abu][NMeA]LP[Nleu][dL][NMeA]L[NMeC]-OEt; thioether N-9)
0.014	CCOC(=O)[C@@H]1CSCC(=O)N[C@@H](CC)C(=O)N(C)[C@@H](C)C(=O)N[C@@H](CC(C)C)C(=O)N2CCC[C@H]2C(=O)N(CC)CC(=O)N[C@@H](CC(C)C)C(=O)N(C)[C@H](C)C(=O)N[C@@H](CC(C)C)C(=O)N1C [JF206_ALL_LLLD_Ethyl] ({CH2CO}-[Abu][NMeA]LP[NEtG]L[dNMeA]L[NMeC]-OEt; thioether N-9)
0.139	CCOC(=O)[C@@H]1CSCC(=O)N[C@@H](CC)C(=O)N(C)[C@@H](C)C(=O)N[C@@H](CC(C)C)C(=O)N2CCC[C@H]2C(=O)N(CC(C)C)CC(=O)N[C@@H](CC(C)C)C(=O)N(C)[C@H](C)C(=O)N[C@@H](CC(C)C)C(=O)N1C [JF206_ALL_LLLD_Isobutyl] ({CH2CO}-[Abu][NMeA]LP[Nleu]L[dNMeA]L[NMeC]-OEt; thioether N-9)
0.678	CCOC(=O)[C@@H]1CSCC(=O)N[C@@H](CC)C(=O)N(C)[C@@H](C)C(=O)N[C@@H](CC(C)C)C(=O)N2CCC[C@H]2C(=O)N(CC)CC(=O)N[C@@H](CC(C)C)C(=O)N(C)[C@@H](C)C(=O)N[C@@H](CC(C)C)C(=O)N1C [JF206_ALL_LLLL_Ethyl] ({CH2CO}-[Abu][NMeA]LP[NEtG]L[NMeA]L[NMeC]-OEt; thioether N-9)
